US20060122276A1, “Agent for inhibiting membrane virus reproduction, method for the production thereof, pharmaceutical composition and method for inhibiting viral infections” (priority 2003, published 2006)
Entries after “also recorded” stand apart in the source; their conditions may differ. Read-outs that look alike come from different tables or passages of the source.

Experiments:
[1] = tested on: African green monkey kidney cells (VERO); assay: Cytotoxic action on non-infected VERO cells; type: cell-based; settings: 500 and 1000 μg/ml; 3-days follow-up
[2] = tested on: HIV-1; settings: for Optical density: 6th day, values >0.086 are positive for HIV
[3] = tested on: HIV-1; assay: Treatment of HIV-1-infected patients, blood sample analyses
Method: The treatment was carried out in accordance with the following schedule: 20 mg rectal suppositories every three days, one suppository a day during 3 months.

[4] = tested on: herpes simplex virus (HSV-1); assay: Antiviral activity with respect to HSV-1 in human embryo fibroblasts (M-21); type: cell-based, type 1, strain L2; settings: 100 TCD50, 48 hours after the infection
From the text: (§1) Herpes simplex virus, type 1, strain L2, replicated in VERO cells was used in the investigation.
(§2) […] acyclovir was used as positive control

[5] = tested on: Hep 2 cells; assay: Proliferation of human epithelial carcinoma Hep 2 cells; type: cell-based
Method: In our experiments we used a 1 day culture of passage 14 Hep 2 cells—reinoculated cells of human epithelial carcinoma.
The growth medium contained DMEM+glutamine+antibiotics+5% FBS (fetal bovine serum). The supporting medium was DMEM/needle with a double kit of amino acids and vitamins+glutamine+antibiotics+10% of cattle serum.
The effect of such influence was most pronounced on the seventh day at the concentration of 100 μg/ml: there appeared discontinuities in the monolayer and there were many cell conglomerates in the culture medium.
The monolayer was removed from the glass plate in the 500 μl volume of the medium. The cells were precipitated from 200 μl, resuspended in a lysing buffer; electrophoresis of proteins was carried out in 12.5% PAAG with Kumashi staining.
A reduction in the intensity of protein profiles was observed on the second day and most dramatically on the seventh day at the studied concentrations of the preparation as compared with control. This can be indicative of a reduction in the number of cells because of inhibition of the mitotic activity of cells in the presence of the preparation. On the 7th day of the action of the preparation a reduction in the number of DNA compared with control was observed. Checking for the presence of DNA fragmentation has shown its absence, i.e., apoptosis manifestations were not detected.

[6] = tested on: hepatitis C virus; assay: Residual infectious activity (titers) of hepatitis C virus in SPEV culture medium; type: cell-based, hepatitis C virus genotype 1b; settings: for Lowering of virus titers in SPEV cell cultures: administered simultaneously with the virus
Method: (§3) In our work we used cytopathogenic strain of hepatitis C virus belonging to geno-type 1b. The strain was isolated from the blood serum of a patient suffering from chronic viral hepatitis C, identified as hepatic C virus. Infective doses of HSV equal to 10 TCD of 50/20 μl were used in the investigation.
For titrating the residual infectiousness of the virus, the same line of porcine embryo kidney cells (SPEV) was used.
(§4) For studying the antiviral activity of the preparation, the preparation was introduced in various concentrations into the SPEV cell cultures at the moment of infection and in 24 hours after the infection with hepatitis C virus on the cell in 24-cell plastic culture plates.
For determining the residual infectious activity of HSV, samples of the culture fluid were taken from the plate cells three days after the treatment of the infected cells with the preparation and titrated on the SPEV cell cultures. The infectious activity of HSV was taken into account from the results of titration on the 6-7th day after the infection, when maximum cytopathogenic action of the virus developed, applying the Rid and Mench formula for calculating the titer of the Hepatitis C virus.

[7] = tested on: hepatitis C virus; assay: Viability of hepatitis C virus-infected SPEV cell cultures; type: cell-based, hepatitis C virus genotype 1b; settings: 7th day after infecting (control 0)
Method: as §3
Cultures of reinoculated porcine embryo kidney cells (SPEV), highly sensitive to the pathogenic action of HSV, obtained from “Narva” Company (Russia) were employed. These cultures were used in the form of a one day monolayer of cells, grown in 24-cell plastic plates.
as §4
The viability of the SPEV cell cultures infected and non-infected with HSV was studied on the 7th day after the infection.

[8] = tested on: lymphoblastoid human cells MT-4; assay: Cytotoxicity on non-infected human lymphoblastoid cells; type: cell-based; settings: for Cytotoxic action of the preparation on cells: 1, 10 μg/ml and higher (to 100 μg/ml)
[9] = tested on: human embryo fibroblasts (M-21); assay: Cytotoxic action on non-infected M-21 cells; type: cell-based; settings: 500 and 1000 μg/ml; 3-days follow-up
[10] = tested on: herpes simplex virus (HSV-1); assay: Antiviral activity with respect to HSV-1 in VERO cells; type: cell-based, type 1, strain L2; settings: 100 TCD50, 48 hours after the infection
From the text: as §1, §2

[11] = 1.0, 10 and 50 μg/ml, introduced 30 and 60 minutes after the infection

For “sodium salt of fullerene-polyamino-caproic acid”, the “Cytodestructive action on non-infected VERO cells” value [1] was “has not revealed cytodestructive action”, the Optical density ([2]; 0.5 μg/ml) was 2.147 and the Optical density ([2]; 1.0 μg/ml) was 0.165. The Optical density ([2]; 10 μg/ml) was 0.074, the “Virus in the culture medium” value ([2]; 10 μg/ml, HIV-1) was “not detected” and the “Condition of the patients” value ([3]; HIV-1-infected patients, 20 mg rectal suppositories, 3 months) was “improvement”. For the same substance, the “Virus titer (value reciprocal to the dilution of sample that gives 50% CPE or syncytia)” value ([3]; Patient A, after 1 month, 20 mg rectal suppository every day, before treatment 8) was 2, the “T4-lymphocytes, mm^3” value ([3]; Patient A, after 1 month, 20 mg rectal suppository every day, before treatment 59) was 355 mm^3 and the “T8-lymphocytes, mm^3” value ([3]; Patient A, after 1 month, 20 mg rectal suppository every day, before treatment 63) was 455 mm^3. The “PCR, RNA, copies/ml” value ([3]; Patient A, after 1 month, 20 mg rectal suppository every day, before treatment 1,200,000) was 72,000 copies/ml, the “Virus titer (value reciprocal to the dilution of sample that gives 50% CPE or syncytia)” value ([3]; Patient A, after 2 months, 20 mg rectal suppository every day, before treatment 8) was 2 and the “T4-lymphocytes, mm^3” value ([3]; Patient A, after 2 months, 20 mg rectal suppository every day, before treatment 59) was 234 mm^3. The “T8-lymphocytes, mm^3” value ([3]; Patient A, after 2 months, 20 mg rectal suppository every day, before treatment 63) was 219 mm^3, the “PCR, RNA, copies/ml” value ([3]; Patient A, after 2 months, 20 mg rectal suppository every day, before treatment 1,200,000) was 43,000 copies/ml and the “Virus titer (value reciprocal to the dilution of sample that gives 50% CPE or syncytia)” value ([3]; Patient A, after 3 months, 20 mg rectal suppository every day, before treatment 8) was 0. For the same substance, the “T4-lymphocytes, mm^3” value ([3]; Patient A, after 3 months, 20 mg rectal suppository every day, before treatment 59) was 381 mm^3, the “T8-lymphocytes, mm^3” value ([3]; Patient A, after 3 months, 20 mg rectal suppository every day, before treatment 63) was 409 mm^3 and the “PCR, RNA, copies/ml” value ([3]; Patient A, after 3 months, 20 mg rectal suppository every day, before treatment 1,200,000) was 44,000 copies/ml. The “Virus titer (value reciprocal to the dilution of sample that gives 50% CPE or syncytia)” value ([3]; Patient B, after 1 month, 20 mg rectal suppositories every three days, before treatment 4) was 128, the “T4-lymphocytes, mm^3” value ([3]; Patient B, after 1 month, 20 mg rectal suppositories every three days, before treatment 163) was 581 mm^3 and the “T8-lymphocytes, mm^3” value ([3]; Patient B, after 1 month, 20 mg rectal suppositories every three days, before treatment 257) was 464 mm^3. For the same substance, the “PCR, RNA, copies/ml” value ([3]; Patient B, after 1 month, 20 mg rectal suppositories every three days, before treatment 140,000) was 180,000 copies/ml, the “Virus titer (value reciprocal to the dilution of sample that gives 50% CPE or syncytia)” value ([3]; Patient B, after 2 months, 20 mg rectal suppositories every three days, before treatment 4) was 2 and the “T4-lymphocytes, mm^3” value ([3]; Patient B, after 2 months, 20 mg rectal suppositories every three days, before treatment 163) was 329 mm^3. The “T8-lymphocytes, mm^3” value ([3]; Patient B, after 2 months, 20 mg rectal suppositories every three days, before treatment 257) was 329 mm^3, the “PCR, RNA, copies/ml” value ([3]; Patient B, after 2 months, 20 mg rectal suppositories every three days, before treatment 140,000) was 3,500 copies/ml and the “Virus titer (value reciprocal to the dilution of sample that gives 50% CPE or syncytia)” value ([3]; Patient B, after 3 months, 20 mg rectal suppositories every three days, before treatment 4) was 1. The “T4-lymphocytes, mm^3” value ([3]; Patient B, after 3 months, 20 mg rectal suppositories every three days, before treatment 163) was 325 mm^3, the “T8-lymphocytes, mm^3” value ([3]; Patient B, after 3 months, 20 mg rectal suppositories every three days, before treatment 257) was 401 mm^3 and the “PCR, RNA, copies/ml” value ([3]; Patient B, after 3 months, 20 mg rectal suppositories every three days, before treatment 140,000) was 2,000 copies/ml. For the same substance, the “Protection of M-21 cells against the cytodestructive action of HSV-1” value ([4]; 10 μg/ml) was “full protection”, the “Protection of M-21 cells from the cytodestructive action of HSV-1” value [4, 11] was “full protection” and the “Number of DNA compared with control” value ([5]; 7th day) was “reduction”. The “Proliferation of Hep 2 cells (monolayer formation)” value ([5]; 10, 50 and 100 μg/ml, most pronounced at 100 μg/ml) was “pronounced inhibition; also recorded: inhibits the formation of a monolayer”, the “Intensity of protein profiles compared with control” value ([5]; second day and most dramatically seventh day, 10, 50 and 100 μg/ml) was “reduction” and the “Titers of hepatitis C virus in medium samples taken on the 3rd day after infecting” value (“Titers of hepatitis C virus” for short) ([6]; 6.25 μg/ml, introduced 24 hours after infecting (control 9.1)) was 9.0 1 g TCD 50/20 μl. The “Titers of hepatitis C virus” value ([6]; 6.25 μg/ml, introduced at the moment of infecting (control 9.5)) was 9.7 1 g TCD 50/20 μl, the “Titers of hepatitis C virus” value ([6]; 12.5 μg/ml, introduced 24 hours after infecting (control 9.1)) was 9.9 1 g TCD 50/20 μl and the “Titers of hepatitis C virus” value ([6]; 12.5 μg/ml, introduced at the moment of infecting (control 9.5)) was 9.5 1 g TCD 50/20 μl. The “Titers of hepatitis C virus” value ([6]; 25 μg/ml, introduced 24 hours after infecting (control 9.1)) was 9.5 1 g TCD 50/20 μl, the “Titers of hepatitis C virus” value ([6]; 25 μg/ml, introduced at the moment of infecting (control 9.5)) was 9.3 1 g TCD 50/20 μl and the “Lowering of virus titers in SPEV cell cultures” value ([6]; 50 μg/ml, listed as preparation) was 3.0 lg. For the same substance, the “Titers of hepatitis C virus” value ([6]; 50 μg/ml, introduced 24 hours after infecting (control 9.1)) was 8.5 1 g TCD 50/20 μl, the “Titers of hepatitis C virus” value ([6]; 50 μg/ml, introduced at the moment of infecting (control 9.5)) was 6.2 1 g TCD 50/20 μl and the “Lowering of virus titers in SPEV cell cultures” value ([6]; 100 μg/ml) was 7.4 lg. For the same substance, the “Titers of hepatitis C virus” value ([6]; 100 μg/ml, introduced 24 hours after infecting (control 9.1)) was 3.0 1 g TCD 50/20 μl, the “Titers of hepatitis C virus” value ([6]; 100 μg/ml, introduced at the moment of infecting (control 9.5)) was 2.1 1 g TCD 50/20 μl and the “Percentage of survived SPEV cells” value ([7]; 6.25 μg/ml, introduced 24 hours after infecting) was 0%. For the same substance, the “Percentage of survived SPEV cells” value ([7]; 6.25 μg/ml, introduced at the moment of infecting) was 0%, the “Percentage of survived SPEV cells” value ([7]; 12.5 μg/ml, introduced 24 hours after infecting) was 0% and the “Percentage of survived SPEV cells” value ([7]; 12.5 μg/ml, introduced at the moment of infecting) was 0%. For the same substance, the “Percentage of survived SPEV cells” value ([7]; 25 μg/ml, introduced 24 hours after infecting) was 0%, the “Percentage of survived SPEV cells” value ([7]; 25 μg/ml, introduced at the moment of infecting) was 0% and the “Percentage of survived SPEV cells” value ([7]; 50 μg/ml, introduced 24 hours after infecting) was 50%. For the same substance, the “Percentage of survived SPEV cells” value ([7]; 50 μg/ml, introduced at the moment of infecting) was 75%, the “Percentage of survived SPEV cells” value ([7]; 100 μg/ml, introduced 24 hours after infecting) was 100% and the “Percentage of survived SPEV cells” value ([7]; 100 μg/ml, introduced at the moment of infecting) was 100%. The “Viability of cells, %” value ([8]; 100 μg/ml, non-infected human lymphoblastoid cells (cell control 93)) was 85%, the “Number of cells in 1 ml × 1000” value ([8]; 100 μg/ml, non-infected human lymphoblastoid cells (cell control 966)) was 866 in 1 ml × 1000 and the “Cytotoxic action of the preparation on cells” value [8] was “no cytotoxic action”. The “Cytotoxic action of the preparation on cells” value ([8]; listed as sodium salt of fullerene-polyamino-propanoic acid) was “not detected”, the “Cytodestructive action on non-infected M-21 cells” value [9] was “has not revealed cytodestructive action” and the “Protection of VERO cells against the cytodestructive action of HSV-1” value ([10]; 10 μg/ml) was “full protection”. The “Protection of VERO cells from the cytodestructive action of HSV-1” value [10, 11] was “full protection”.
